{
  "source": "patent US20210283083A1",
  "about": "“USE OF TYROSINE HYDROXYLASE INHIBITORS FOR THE TREATMENT OF AORTIC ANEURYSM” (CONSEJO SUPERIOR DE INVESTIGACIONES CIENTÍFICAS (CSIC), priority 2018, published 2021)",
  "type_in_all_cases": "in vivo",
  "key": {"[1]": {"experiment": "Systolic blood pressure by tail plethysmography in ApoE^−/− mice infused with Ang II", "details": "for systolic pressure: Ang II 1000 ng/kg/min + AMPT 100 mg/kg i.p. twice daily", "experimental": "(§1) The studies were developed in male ApoE^−/− mice who were acclimatised to the facility for 1 week before the study. Animals were infused with Ang II (1000 ng/kg/min) by means of osmotic minipumps (model 1004, Alzet) implemented subcutaneously in the interscapular space of the mice after anesthesia with isoflurane. The procedure lasts approximately 15 minutes per animal. Immediately after surgery, antibiotics (penicillin, 22,000 u/Kg, i.m.) and analgesics (buprenorphine 0.05 mg/Kg, i.m.) were administered for preventing infections and limiting animal discomfort, which were kept on a heating pad until they woke up after the intervention and were carefully monitored during the post-surgery period. A group of the mice infused with Ang II received AMPT treatment (100 mg/kg, via i.p) administered twice daily from the day before implementing the Ang II pump and throughout the study (28 days). The control group consisted of ApoE^−/− mice infused with saline. Blood pressure was assessed weekly (at 0, 7, 14, 21 and 28 days) by means of the tail plethysmography method. The diameter of the aorta was also assessed weekly by means of abdominal ultrasound using ultrasound equipment (Vevo2100 Imaging systems, Visualsonics) with a 30 MHz transducer. To do this, the mice were anesthetised by means of 1.5% isofluorane inhalation and secured in a supine position on a heating platform. After shaving the precordial region, the transducer was applied to the abdominal wall to take measurements of the abdominal aorta. Those abdominal aortas with external diameters greater than or equal to 1.5 mm were considered aneurysmal. All measurements were carried out from the images captured by using the analysis software. After 4 weeks, the animals were euthanised by means of terminal intraperitoneal anesthesia with a mixture of medetomidine (1 mg/kg) and ketamine (75 mg/kg) in saline (final volume of 200 μl), aortas were immediately harvested, they were examined to determine the presence of aneurysms and were immediately frozen in nitrogen or fixed in paraformaldehyde for macroscopic characterisation or to be embedded in paraffin and processed for histochemical studies."}, "[2]": {"experiment": "Systolic blood pressure in TgNR4A3^CML mice infused with Ang II", "details": "for systolic pressure: Ang II + AMPT", "experimental": "as §1\nThe studies were developed in a similar way to that described in Example 3. In this case, the effect of the infusion of Ang II on the diameter of the aorta in control animals (C57BL/6J; WT) and in transgenic mice for NR4A3 (TgNR4A3^CML) was analysed. The transgenic mice infused with Ang II were divided into two groups, one of which received AMPT treatment from the day before implementation of the Ang II pumps, as described in Example 3, while the second group only received the vehicle in which this drug was administered (saline). The control groups consisted of transgenic mice and non-transgenic controls infused with saline."}, "[3]": {"tested_on": "ApoE^−/− mice infused with angiotensin II", "experiment": "Ang II-induced aortic aneurysm in ApoE^−/− mice (ultrasonography, histology)", "experimental": "FIG. 3. […] (A) Graph which represents the weekly evolution of the aortic diameter of ApoE^−/− mice infused with saline or angiotensin II (Ang II; 1000 ng/kg/min for 28 days) analysed by means of ultrasonography. Animals infused with Ang II were treated or not with AMPT (100 mg/kg via IP, administered twice a day from the day before implementing the Ang II pump). The values correspond to the mean±SEM (saline, n=9; Ang II, n=14; Ang II+AMPT, n=19). P<0.05: * vs. time 0 of the same experimental group; # vs. animals infused with saline at the same time; $ vs. animals infused with Ang II (not treated with AMPT) at the same time. (B) Representative images obtained by means of ultrasonography of the cross-sectional view of the aorta of each of the experimental groups indicated in (A) after 4 weeks of treatment. (C) Representative photographs of the aortas of the mice in the 3 study groups at the end of the study.\n(§2) FIG. 4. […] ApoE^−/− mice were infused with saline or angiotensin II (Ang II; 1000 ng/kg/min for 28 days). Animals infused with Ang II were treated or not with AMPT (100 mg/kg, via IP, administered twice a day from the day before implementing the Ang II pump). (A and B) Representative images of the histological analysis using Masson's trichrome (A) and orcein (B) staining in sections of the abdominal aorta of the indicated study groups. Arrows indicate elastic fibre ruptures. (C) Representative staining for MAC3 (macrophage marker) in sections of the abdominal aorta of each one of the experimental groups. Arrows indicate positive regions for MAC3. Bar: 100 microns.\nas §1"}, "[4]": {"tested_on": "TgNR4A3^CML mice infused with angiotensin II", "experiment": "Ang II-induced aortic aneurysm in TgNR4A3^CML mice (ultrasonography, histology)", "experimental": "(A) Diameter of the aorta of non-transgenic mice (controls; C57BL/6J; WT) and transgenic mice for human NR4A3 (TgNR4A3^CML) infused with saline or angiotensin II (Ang II; 1000 ng/kg/min for 28 days). A group of TgNR4A3^CML mice infused with Ang II was treated with AMPT (100 mg/kg, via IP, administered twice a day from the day before implementing the Ang II pump). The diameter of the aorta was determined by means of ultrasonography. Values are expressed as mean±SEM (at least n=7). P<0.05: * vs. time 0 of the same experimental group; # vs. the same animal infused with saline at the same time; $ vs. TgNR4A3CML infused with Ang II and treated with AMPT. (B) Representative images obtained by means of ultrasonography of the cross-sectional view of the aorta of each of the experimental groups indicated in (A) after 4 weeks of treatment. (C) Representative photographs of the aortas of the mice in the 5 groups at the end of the study.\nas §2, with “6.” for “4.”, “Non-transgenic (controls; C57BL/6J; WT) and transgenic” for “ApoE^−/−”, “mice for human NR4A3 (TgNR4A3^CML)” for “mice”, “A group of transgenic animals” for “Animals”\nas §1\nThe studies were developed in a similar way to that described in Example 3. […]"}, "[5]": {"details": "ApoE^−/− mice, Ang II, AMPT 100 mg/kg i.p. twice daily, 28 days"}, "[6]": {"details": "TgNR4A3^CML mice, Ang II, AMPT treatment"}},
  "data": [
    {"smiles": "CC(N)(Cc1ccc(O)cc1)C(=O)O", "note": "(stereo not drawn) [AMPT, alpha-methyl-p-tyrosine]", "values": [
      {"measurement": "systolic pressure", "setting": "[1]; day 0, mean ± SEM", "value": 100.55, "unit": "mm Hg"},
      {"measurement": "systolic pressure", "setting": "[1]; day 7, mean ± SEM", "value": 133.99, "unit": "mm Hg"},
      {"measurement": "systolic pressure", "setting": "[1]; day 14, mean ± SEM", "value": 136.36, "unit": "mm Hg"},
      {"measurement": "systolic pressure", "setting": "[1]; day 21, mean ± SEM", "value": 143.34, "unit": "mm Hg"},
      {"measurement": "systolic pressure", "setting": "[1]; day 28, mean ± SEM", "value": 154.46, "unit": "mm Hg"},
      {"measurement": "effect of AMPT treatment on Ang II-increased blood pressure", "setting": "[1]; Ang II infusion, AMPT 100 mg/kg i.p. twice daily, 28 days", "value": "not significantly altered"},
      {"measurement": "systolic pressure", "setting": "[2]; day 0, mean ± SEM", "value": 100.19, "unit": "mm Hg"},
      {"measurement": "systolic pressure", "setting": "[2]; day 7, mean ± SEM", "value": 111.79, "unit": "mm Hg"},
      {"measurement": "systolic pressure", "setting": "[2]; day 14, mean ± SEM", "value": 129.03, "unit": "mm Hg"},
      {"measurement": "systolic pressure", "setting": "[2]; day 21, mean ± SEM", "value": 146.44, "unit": "mm Hg"},
      {"measurement": "systolic pressure", "setting": "[2]; day 28, mean ± SEM", "value": 158.59, "unit": "mm Hg"},
      {"measurement": "effect of AMPT treatment on Ang II-increased blood pressure", "setting": "[2]; Ang II infusion, AMPT 100 mg/kg i.p. twice daily", "value": "without significant differences"},
      {"measurement": "development of aortic aneurysm", "setting": "[3]; ApoE^−/− mice infused with Ang II 1000 ng/kg/min for 28 days, AMPT 100 mg/kg IP twice a day", "value": "inhibits the development of aortic aneurysm"},
      {"measurement": "Ang II-induced increase in aortic diameter (ultrasonography)", "setting": "[3]; ApoE^−/− mice, AMPT 100 mg/kg i.p. twice daily, significant after 14 days, accentuated until 28 days", "value": "reduced the increase in aortic diameter to values similar to those of control animals"},
      {"measurement": "structural alterations and inflammatory infiltrate in the aorta", "setting": "[3]; ApoE^−/− mice, Ang II 1000 ng/kg/min for 28 days, AMPT 100 mg/kg IP twice a day", "value": "limits structural alterations and inflammatory infiltrate"},
      {"measurement": "disruption and rupture of elastic fibers (orcein staining)", "setting": "[3]; [5]", "value": "limited the disruption and rupture of elastic fibers"},
      {"measurement": "macrophage (MAC3-positive cells) infiltrate in the vascular wall", "setting": "[3]; [5]", "value": "prevented the significant macrophage (MAC3-positive cells) infiltrate"},
      {"measurement": "vascular remodelling / collagen deposition (Masson's trichrome)", "setting": "[3]; [5]", "value": "attenuated"},
      {"measurement": "development of aortic aneurysm", "setting": "[4]; TgNR4A3^CML mice infused with Ang II 1000 ng/kg/min for 28 days, AMPT 100 mg/kg IP twice a day", "value": "inhibits the development of aortic aneurysm"},
      {"measurement": "Ang II-induced increase in aortic diameter (ultrasonography)", "setting": "[4]; TgNR4A3^CML mice, AMPT 100 mg/kg i.p. twice daily, after 21 and 28 days, values similar to WT mice infused with Ang II", "value": "significantly prevented this effect"},
      {"measurement": "structural alterations and inflammatory infiltrate in the aorta", "setting": "[4]; TgNR4A3^CML mice, Ang II 1000 ng/kg/min for 28 days, AMPT 100 mg/kg IP twice a day", "value": "limits structural alterations and inflammatory infiltrate"},
      {"measurement": "destructuring and rupture of the elastic laminae (orcein staining)", "setting": "[4]; [6]", "value": "limited the destructuring and rupture of the elastic laminae"},
      {"measurement": "vascular inflammatory infiltrate (MAC3 immunohistochemistry)", "setting": "[4]; [6]", "value": "reduced the important vascular inflammatory infiltrate"},
      {"measurement": "vascular remodelling and collagen deposition (Masson's trichrome)", "setting": "[4]; [6]", "value": "attenuated the exacerbated vascular remodelling and collagen deposition"}
    ]}
  ]
}
